Consider three compounds from US20100303790A1, “USE OF BILIVERDIN REDUCTASE (BVR) AND BVR PEPTIDE FRAGMENTS TO TREAT CORONARY DISORDERS” (UNIVERSITY OF ROCHESTER, priority 2009, published 2010).

Entries after “also recorded” stand apart in the source; their conditions may differ.

The subject of experiment [1] is cardiomyocytes in the intact heart. The experiment can be described thus: Langendorff perfused heart: apoptosis (TUNEL, genomic DNA fragmentation). To be noted: for apoptosis in cardiomyocytes of the perfused heart (TUNEL): 0.1 μM ISO, peptides 25 μM together with ISO. The format is in vivo, rat. From the text:
Analysis of Apoptosis: The terminal deoxyribonucleotide transferase-mediated dUTP nick-end labeling (TUNEL) assay was used to detect in situ DNA fragmentation, using the In Situ Cell Death Detection Kit (Roche) as described previously (Ding et al., “Functional Role of Phosphodiesterase 3 in Cardiomyocyte Apoptosis: Implication in Heart Failure,” Circulation 111:2469-2476 (2005), which are hereby incorporated by reference in their entirety). In addition, the cells were stained for cardiomyocyte-specific sarcomeric α-actinin with the antibody EF-53 to distinguish cardiomyocytes from contaminating fibroblasts; and only EF-53 positive cells were counted. Three independent experiments were performed and an average of 1,000 EF-53 positive cells from random fields were analyzed.
DNA Electrophoresis: Total cellular DNA was isolated from untreated and treated cells by lysis in 10 mM Tris-HCl, pH 7.8; 1 mM, EDTA, 10 mM NaCl, 1% (w/v) SDS and 1 mg/ml proteinase K at 60° C. for 2 hours. The lysate was extracted twice each with phenol-choloroform (1:1, v/v) and chloroform, followed by precipitation with ethanol. The precipitate was collected by centrifugation, washed once in 70% ethanol, and resuspended in TE containing 1 mg/ml RNase at 37° C. for 30 min. DNA was resolved by electrophoresis in 2.0% agarose gels containing ethidium bromide.
In Vivo Experimental Langendorff Model: Male Sprague-Dawley rats weighing 250-300 g (Charles River, Boston, Mass.) were used in this study; the protocol is based on that described by Tompkins et al., “Mitochondrial Dysfunction in Cardiac Ischemia-Reperfusion Injury: ROS From Complex I, Without Inhibition,” Biochim Biophys Acta 1762:223-231 (2006), which is hereby incorporated by reference in its entirety, with minor modification. The rats were fed a standard rat chow and had water ad libitum. All experiments were approved by the University of Rochester Institutional Animal Care and Use Committee. Rats were given two subcutaneous injections of isoproterenol (ISO) (0.01 mg/kg), 6 hours apart, then anesthetized with freshly prepared Avertin (2,2,2-tribromoethanol, […] injected intraperitoneally), and treated with heparin (5000 U/kg), i.p., to protect the heart against microthrombi. The aorta was cannulated in situ with a 22-gauge needle filled with warm Krebs-Henseleit (KH) buffer. The heart was rapidly transferred (<10 s.) to a perfusion apparatus, and retrograde (Langendorff) perfusion begun with 37° C. KH buffer gassed with 95% O2 plus 5% CO2, in constant flow mode (12 ml/min). […] Hemodynamics and heart rate were recorded by inserting a water-filled balloon connected to a transducer (Radnoti LLC, model no. 159904B) into the left ventricle. […]

Experiment [2] has as its system isolated perfused heart. The experiment can be described thus: Langendorff perfused heart: left ventricle contractile function and heart rate. It is filed as in vivo, rat. Particulars: for left ventricle contractile function (systolic pressure, developed pressure, dp/dt, -dp/dt): peptide 25 μM with 0.1 μM isoproterenol, vs isoproterenol alone. The text has this: In Vivo Experimental Langendorff Model: Male Sprague-Dawley rats weighing 250-300 g (Charles River, Boston, Mass.) were used in this study; the protocol is based on that described by Tompkins et al., “Mitochondrial Dysfunction in Cardiac Ischemia-Reperfusion Injury: ROS From Complex I, Without Inhibition,” Biochim Biophys Acta 1762:223-231 (2006), which is hereby incorporated by reference in its entirety, with minor modification. The rats were fed a standard rat chow and had water ad libitum. All experiments were approved by the University of Rochester Institutional Animal Care and Use Committee. Rats were given two subcutaneous injections of isoproterenol (ISO) (0.01 mg/kg), 6 hours apart, then anesthetized with freshly prepared Avertin (2,2,2-tribromoethanol, […] injected intraperitoneally), and treated with heparin (5000 U/kg), i.p., to protect the heart against microthrombi. The aorta was cannulated in situ with a 22-gauge needle filled with warm Krebs-Henseleit (KH) buffer. The heart was rapidly transferred (<10 s.) to a perfusion apparatus, and retrograde (Langendorff) perfusion begun with 37° C. KH buffer gassed with 95% O2 plus 5% CO2, in constant flow mode (12 ml/min). Perfusion was performed using 0.1 μM ISO or KH buffer as a control; the hBVR-derived peptides KKRILHC^281 (25 μM) or KYCCSRK^296 (25 μM) were included in perfusion medium with or without ISO. Hemodynamics and heart rate were recorded by inserting a water-filled balloon connected to a transducer (Radnoti LLC, model no. 159904B) into the left ventricle. The transducer was connected to a data acquisition system (DATAQ Instrument, Akron Ohio, Model: DI-205). At the end of each experiment, the heart was cut into 5 μm sections for TUNEL study or homogenized for western blots.
The effect of peptides on the integrity of the heart was also examined in the perfusion system, by measuring left ventricle contractile function in the presence of isoproterenol as a function of time.

Experiment [3] has as its target T1, BVR (Homo sapiens, UniProt P53004, A154S/E160D/G155D).
T1 sequence (P53004 3-296 A154S/G155D/E160D): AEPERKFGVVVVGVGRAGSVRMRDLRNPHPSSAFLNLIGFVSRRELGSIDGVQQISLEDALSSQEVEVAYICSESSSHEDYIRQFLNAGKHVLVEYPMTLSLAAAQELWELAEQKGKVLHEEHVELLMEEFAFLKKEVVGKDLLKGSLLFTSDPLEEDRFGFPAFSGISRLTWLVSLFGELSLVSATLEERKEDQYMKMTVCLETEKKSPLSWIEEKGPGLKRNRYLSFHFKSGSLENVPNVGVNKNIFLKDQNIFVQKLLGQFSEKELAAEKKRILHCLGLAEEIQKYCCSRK
Particulars: Lerner-Marmarosh et al. 2007; cited from earlier work.

Where [4] appears, read: peptide 25 μM with isoproterenol.

`CC(C)NCC(O)c1ccc(O)c(O)c1` (stereo not drawn) [isoproterenol]: the “apoptosis in cardiomyocytes of the perfused heart (TUNEL)” value (from here on “apoptosis in cardiomyocytes”) in experiment [1] was “increased apoptosis”. The “heart rate, left ventricular systolic pressure, development pressure, dp/dt, -dp/dt over the course of the experiment” value in experiment [2] (0.1 μM isoproterenol perfusion) is “declined”.

For “KKRILHC (biliverdin reductase peptide) [KKRILHC^281]”, in experiment [1], the “apoptosis in cardiomyocytes” value was “increase in apoptosis; also recorded: significant increases in apoptosis”. Besides, the “fragmentation of genomic DNA from perfused heart” value in experiment [1] (peptide 25 μM with ISO) is given as “fragmentation is detectable”. For the same compound, the “left ventricle contractile function (systolic pressure, developed pressure, dp/dt, -dp/dt)” value in experiment [2] is “the rate of decline was increased; also recorded: significantly diminished cardiac function”. Also, in experiment [2] (setting [4]), the “change in heart rate observed with isoproterenol alone” value is listed as “Neither peptide affected the change in heart rate” and the “time after initiating perfusion by which the increased rate of decline was observed” value was ≤ 30 min. For the same compound, in experiment [3], the “effect on BVR activity” value is on record as “potent inhibitor”.

On to “KYCCSRK (biliverdin reductase peptide) [KYCCSRK^296]”, for which, in experiment [1], the “apoptosis in cardiomyocytes” value was “decreased apoptosis; also recorded: nearly complete reduction in apoptosis”. For the same compound, in experiment [2], the “left ventricle contractile function (systolic pressure, developed pressure, dp/dt, -dp/dt)” value was “slowed the decrease in contractile function; also recorded: improved cardiac function”. In addition, in experiment [2] (setting [4]), the “change in heart rate observed with isoproterenol alone” value is “Neither peptide affected the change in heart rate”. Further, the “effect on BVR activity” value in experiment [3] is “activator”.
